Measured values published in patent publication US12029726B1, “Composition and method of treating conditions associated with extracellular matrix dysfunction by administering micronutrient composition” (priority 2023, dated 2024).

Test system: cultured human chondrocytes and synovial fibroblasts
Test: LPS-induced arthritic processes in cultured human synovial cells (IL6, MMP13 release; Col2, Aggr, HA content), summary
Assay type: cell-based
Details: added to cell culture medium with LPS
Source text: Inflammation process was initiated by additions of bacterial lipopolysaccharide (LPS) to cell culture medium. Tested parameters included cellular release of interleukin 6 (IL6) as an indicator of induced inflammation, cell culture accumulation of specific extracellular matrix (ECM) components, such as collagen type II (Col2), aggrecan (Aggr) and hyaluronic acid (HA), and release of matrix metalloproteinase 13 (MMP13) as an indicator of cartilage digesting process. Addition of LPS to cell cultures induced inflammation process characterized by dramatic increase in cellular release of IL6 and MMP13 and reduction in cell culture content of Col2, Aggr and HA.
Experiments: For the experiments cells were seeded in 96 well plastic cell culture plates covered with fibronectin (Greiner Bio-One) and grown to a confluent layer at 37° C. and 5% CO2 in corresponding cell culture medium. Cells were supplemented with 3 mcg/ml bacterial lipopolysaccharide (LPS, inflammation inducing treatment) and micronutrient composition were applied for indicated period in growth medium as indicated in the corresponding figure legends. At the end of the incubation cultured cells layers were washed twice with phosphate buffered saline (PBS) and treated in two ways: for the exposition of extracellular matrix (ECM) cells were lysed by 3 min incubation with 0.5% Triton X100/PBS which was followed by 3 min incubation with 25 mM NH4OH/PBS at room temperature or the cells were fixed by using 3% formaldehyde/PBS for one hour at 4° C. […]
Aggrecan, Collagen type II and Hyaluronic Acid content in 96 well plates prepared as described above, which is either exposed ECM or in fixed cells, was assayed by standard sandwich type immunoassay (ELISA, all reagents from Sigma-Aldrich) using rabbit polyclonal anti aggrecan, rabbit polyclonal anti collagen type II antibodies or biotinylated Hyaluronic Acid binding protein as primary treatment and goat anti rabbit IgG antibodies conjugated with horse radish peroxidase (HRP) or HRP-conjugated High Density Streptavidin as secondary treatment, respectively. Assayed component content was estimated by color changing reaction of HRP substrate (TMB substrate solution, Sigma-Aldrich) measured as 450 nm optical density using microplate optical density reader (Molecular Devices). […]
Effects of Micronutrient composition on Release of Inflammation Markers in Cultured Human Synovial Cells: Inflammation process was induced in human chondrocytes cultured in 96 well plates with LPS as described above. […] At the end of indicated incubation period interleukin 6 (IL6) and matrix metalloproteinase 13 (MMP13) levels in conditioned cell culture media were measured by ELISA using assay kits (R&D Systems) in accordance with manufacturer's protocol. […]

| Compound | reversal of LPS-induced arthritic processes (increase in IL6 and MMP13 release, reduction in Col2, Aggr and HA content) |
| --- | --- |
| O=C(O)CCC(=O)C(=O)O [Alpha Keto-Glutarate] | reversed to different degrees |
| O=C([O-])/C=C/C(=O)[O-].[Fe+2] [Iron (II) Fumarate] | reversed to different degrees |
| NC(=O)CC[C@H](N)C(=O)O [L-Glutamine] | reversed to different degrees |
| C[S+](CC[C@H](N)C(=O)[O-])C[C@H]1O[C@@H](n2cnc3c(N)ncnc32)[C@H](O)[C@@H]1O (stereo partly shown) [S-Adenosyl Methionine] | reversed to different degrees |
